Read-outs that look alike come from different tables or passages of the source.
How the values were obtained:
calf thymus DNA [1] = assay: ethidium displacement assay, calf thymus DNA; assay type: binding
Description: (§1) The ethidium displacement assay is based on the fact that ethidium binding to DNA causes a large (approximately 25 fold) florescence enhancement as a result of the hydrophobic environment surrounding the ethidium molecule. Displacement of ethidium results in decreased fluorescence, and thus binding constants of drugs to DNA can be estimated and compared by measuring the loss of fluorescence as a function of added drug. The drug concentration which produces 50% inhibition of florescence is approximately inversely proportional to the apparent binding constant.
(§2) The relative DNA binding constants (Kapp) of distamycin and Compounds 6-10 to calf thymus DNA, T4 coliphage DNA, poly(dAdT) and poly(dGdC) were determined using the ethidium displacement assay (Morgan et al., 1979). The Kapp of ethidium bromide (Debart et al., 1989) is included for comparison. 25 μL of a 2A260 DNA solution was added to 2 mL of ethidium bromide buffer (250 μL of 1.3 mM ethidium bromidestock, 314.9 mg Tris-HCl, 60.8 mg Tris base and 930/mg of Na2 EDTA.2H2 O in 250 ml H2 O) pH 7.4 and the maximum fluorescence was measured (excitation wavelength=546 nm, emission wavelength=600 nm) at ambient temperature.
(§3) DNA solutions of 2A260 were prepared as follows: T4 coliphage DNA: 10 units of DNA were dissolved in 1 mL of 10 mM sodium phosphate (pH 7.1) and 0.25 mM EDTA buffer to give a 10A260 solution. 0.3 mL of the stock solution were diluted to 1.5 mL with 10 mM sodium phosphate (pH 7.1) and 0.25 mM EDTA buffer to give a 2A260 solution. Calf thymus DNA: 100 units of DNA were dissolved in 5 mL of 10 mM sodium phosphate (pH 7.1) and 0.25 mM EDTA buffer to give a 20A260 solution. 1.5 mL of the stock solution were diluted to 15 mL with 10 mM sodium phosphate (pH 7.1) and 0.25 mM EDTA buffer to give a 2A260 solution. Poly(dA-dT) and Poly(dG-dC) DNA: 100 units of DNA were dissolved in 10 mL of 10 mM sodium phosphate pH 7.1) and 0.25 mM EDTA buffer to give a 10A260 solution. 3 mL of the stock solution were diluted to 15 mL with 10 mM sodium phosphate (pH 7.1) and 0.25 mM EDTA buffer to give a 2A260 solution.
(§4) Aliquots of 10 mM stock drug solution (1 mg of drug to be tested was dissolved with 1 mole equivalent of 0.1M HCl, and then diluted with appropriate volume of distilled water to make a 10 mM solution) were then added to the fluorescing solution and the florescence measured after each addition until a 50% reduction of fluorescence occurred. If the 10 mM stock solution lowered the % fluorescence too quickly, the stock solution was further diluted to 1 mM prior to titration. The apparent binding constant was then calculated from this equation: KEtBr [EtBr]=Kapp [drug], where [drug]=the concentration of drug at a 50% reduction of fluorescence and KEtBr [1×10^7 M^-1 for calf thymus and coliphage T4 DNA^18, 9.5×10^6 M^-1 for poly(dA.dT)^30, and 9.9×10^6 M^-1 for poly(dG.dC)^30 ] and [EtBr] were known. The concentration of ethidium bromide was 1.3 μM. The Kapp values are shown in Table I. In a separate experiment, the Kapp of Compound 5 for calf thymus DNA and poly[dGdC] were determined to be 0.3×10^5 M^-1 and 2.6×10^5 M^-1, respectively. The error in these measurements is ±[…].

poly(dGdC) [2] = assay: ethidium displacement assay, poly(dGdC); assay type: binding
Description: as §1, §2, §3, §4

[3] = tested on: human chronic myelogenous leukemic K562 cells; assay: growth inhibition of K562 cells (MTT viability assay); assay type: cell-based; conditions: for IC50: Homo sapiens, K562, 1 hour drug exposure at 37° C., 5-6 days, MTT; for activity against the growth of K562 cells: in words
Method: The ability of the compounds of the present invention to inhibit the growth of human chronic myelogenous leukemic K562 cells was determined as follows.
The incubation was terminated by centrifugation (5 minutes, 300 g) and the cells washed once with drug-free medium.
Following the appropriate drug treatment, the cells were transferred to 96-well microtiter plates, 10^4 cells per well, 8 wells per sample. Plates were then kept in the dark at 37° C. in a humidified atmosphere containing 5% CO2. […] Following incubation of the plates of 5-6 days (to allow control cells to increase in the number by 10 fold) 20 μL of a 5 mg/mL solution of MTT in phosphate buffered saline was added to each well and the plates further incubated for 5 h. The plates were then centrifuged for 5 minutes at 300 g and the bulk of the medium pipetted from the cell pellet leaving 10-20 μL per well. 200 μL DMSO was added to each well and the samples agitated to ensure complete mixing. The optical density was then read at a wavelength of 550 nm on a Titertek Multiscan ELISA plate reader and the dose-response curve constructed.

calf thymus DNA [4] = assay: UV-dialysis study (covalent retention on DNA); assay type: binding; conditions: 24 h incubation at room temperature; 20-26 hours dialysis; pH 7.1
Description: The compounds of the present invention are useful as anticancer agents. Although the biological mechanism which results in anticancer activity is not fully understood, the compounds of the subject invention are capable of binding to the minor groove of double-stranded DNA and, unlike distamycin and netropsin, can tolerate GC-containing DNA. Accordingly, the DNA alkylating moiety of the compounds of the present invention can be directed to the minor groove of GC-containing regions of double-stranded DNA. One of ordinary skill in the art can determine the DNA alkylating ability of the compounds of the present invention by art-recognized methods. The formation of an irreversible adduct of DNA and a compound of the present invention is defined herein as a measure of the DNA alkylating ability of the subject compounds. The formation of an irreversible adduct can be determined by art-recognized methods. For example, a solution containing DNA and a compound of the present invention can be exhaustively dialyzed under conditions which allow unbound drug to pass out of the dialysis bag. The percentage of the compound which has been retained in the dialysis bag is considered to be covalently bound to the DNA, and is determined by comparing the UV absorption spectrum of the compound/DNA solution before and after exhaustive dialysis.
0.5 mL of 2A260 calf thymus DNA was diluted to 2 mL with 10 mM sodium phosphate and 0.25 mM EDTA buffer, pH 7.1. Four aliquots (3 μL each) of a 1 mM stock drug solution in distilled water were added to the DNA solution and a UV absorption spectrum (300-320) was recorded after each addition. The drug/DNA solution was incubated for 24 h at room temperature and another UV spectrum was recorded. The drug/DNA solution was then transferred into a dialysis bag and the dialysis bag was suspended in 30 mL of 10 mM sodium phosphate and 0.25 mM EDTA buffer, pH, 7.1, at room temperature. After 20-26 hours, the […] spectrum of 2 mL of the buffer outside the dialysis bag was recorded. The absorbance of the drug peak was converted to concentration by the Beer-Lambert equation, and the data was presented as percent initial concentration. Under these conditions, substantial amounts of Compounds 6 (55±5%), 7 (45±5%), 8 (85±5%) and 10 (100±5%) are retained in the dialysis bag, while only 29±5% of a formamido analog^1 is retained.

poly(dAdT) [5] = assay: ethidium displacement assay, poly(dAdT); assay type: binding; conditions: ± 0.02 × 10^5 M^-1, pH 7.4
Description: as §1, §2, §3, §4

minor groove of B-DNA = conditions: cited from earlier work
T4 coliphage DNA [6] = assay: ethidium displacement assay, T4 coliphage DNA; assay type: binding; conditions: ± 0.02 × 10^5 M^-1, pH 7.4
Description: as §1
The apparent binding constants for T4 coliphage DNA are an indicator of the minor groove selectivity of the compounds of the present invention. The major groove of T4 coliphage DNA is blocked by α-glycosylation of the 5-hydroxymethylcytidine residues; therefore, the non-intercalating agents that bind to T4 coliphage DNA must interact in the minor groove [Lown (1982) Acc. Chem. Res., 15, 381].
as §2, §3, §4

calf thymus DNA [7] = conditions: literature constant, read-out: KEtBr; cited from earlier work
poly(dAdT) [8] = conditions: poly(dA.dT); literature constant; read-out: KEtBr (converted); cited from earlier work
poly(dGdC) [9] = conditions: poly(dG.dC); literature constant; read-out: KEtBr (converted); cited from earlier work
T4 coliphage DNA [10] = conditions: literature constant, read-out: KEtBr; cited from earlier work

## CN(C)NC(=O)c1nc(NC(=O)c2nc(NC(=O)c3ccc(N(CCCl)CCCl)cc3)cn2C)cn1C [Compound 5, N-(N',N'-dimethylamino)-1-methyl-4-{4-[4,4-bis(2-chloroethyl)aminobenzamido]-1-methylimidazole-2-carboxamido}imidazole-2-carboxamide]
Calf thymus DNA [1]; separate experiment, read-out: Kapp (converted)
  Kd: 33.3 µM
poly(dGdC) [2]; poly[dGdC], separate experiment, read-out: Kapp (converted)
  Kd: 3.85 µM

## CN(C)CCNC(=O)c1nc(NC(=O)c2nc(NC(=O)CCl)cn2C)cn1C [Compound 11, N-(N',N'-dimethylaminoethyl)-1-methyl-4-[4-(chloroacetamido)-1-methylimidazole-2-carboxamido)imidazole-2-carboxamide]
[3]
  IC50: 350 µM

## CN(C)CCNC(=O)c1nc(NC(=O)c2nc(NC(=O)CBr)cn2C)cn1C [Compound 12, N-(N',N'-dimethylaminoethyl)-1-methyl-4-[4-(bromoacetamido)-1-methylimidazole-2-carboxamido]imidazole-2-carboxamide]
[3]
  IC50: 400 µM

## CN(C)NC(=O)c1nc(NC(=O)c2nc(NC=O)cn2C)cn1C [Compound 13]
[3]
  IC50: > 500 µM
  activity against the growth of K562 cells: no activity

## CN(C)CCNC(=O)c1nc(NC(=O)c2nc(NC=O)cn2C)cn1C [Compound 14]
[3]
  IC50: > 500 µM
  activity against the growth of K562 cells: no activity

## CN(C)CCNC(=O)c1nc(NC(=O)c2nc(NC(=O)c3nc(NC=O)cn3C)cn2C)cn1C [Compound 15, N-(N',N'-dimethylaminoethyl)-1-methyl-4-{1-methyl-4-[4-formamido-2-methylimidazole-2-carboxamido]imidazole-2-carboxamido}imidazole-2-carboxamide]
Calf thymus DNA [4]
  retained in the dialysis bag (percent initial concentration): 29±5%
[3]
  IC50: > 500 µM
  activity against the growth of K562 cells: no activity

## Cn1cc(NC(=O)c2cc(NC(=O)c3cc(NC=O)cn3C)cn2C)cc1C(=O)NCCC(=N)N [Distamycin, distamycin]
Calf thymus DNA [1]; ± 0.02 × 10^5 M^-1, pH 7.4
  Association constant Kapp: 774000 M⁻¹
poly(dGdC) [2]; poly(dGdC), ± 0.02 × 10^5 M^-1, pH 7.4
  Association constant Kapp: 203000 M⁻¹
poly(dAdT) [5]
  Association constant Kapp: 3.48e+07 M⁻¹
Minor groove of B-DNA
  specific nucleotide sequence bound / preferred: (AT)5
T4 coliphage DNA [6]
  Association constant Kapp: 640000 M⁻¹

## CC[n+]1c(-c2ccccc2)c2cc(N)ccc2c2ccc(N)cc21 [EtBr, ethidium bromide]
Calf thymus DNA [7]
  Kd: 0.1 µM
poly(dAdT) [8]
  Kd: 0.105 µM
poly(dGdC) [9]
  Kd: 0.101 µM
T4 coliphage DNA [10]
  Kd: 0.1 µM

## Cn1cc(NC(=O)c2cc(NC(=O)CN=C(N)N)cn2C)cc1C(=O)NCCC(=N)N [Netropsin, netropsin]
Minor groove of B-DNA
  specific nucleotide sequence bound / preferred: (AT)4

Reference: US5273991A, “Imidazole-containing compositions and methods of use thereof analogs of distamycin” (Research Corporation Technologies, Inc., priority 1992, dated 1993)
